Measurements taken from ChEMBL document CHEMBL3217612, “Progress on lamellarins” (Medchemcomm, 2011).

How the values were obtained:
H69AR = assay: Cytotoxicity against human H69AR cells after 48 hrs by XTT assay; format: functional, cell-based
MDA-MB-231 = assay: Cytotoxicity against human MDA-MB-231 cells after 48 hrs by XTT assay; format: functional, cell-based; conditions: MDA-MB-231, 48 h
HL-60 = assay: Cytotoxicity against human HL60 cells after 48 hrs by XTT assay; format: functional, cell-based; conditions: HL-60, 48 h
T47D = assay: Cytotoxicity against human T47D cells after 48 hrs by XTT assay; format: functional, cell-based
HeLa = assay: Cytotoxicity against human HeLa cells after 48 hrs by XTT assay; format: functional, cell-based
[1] = Cytotoxicity against human HuCCa1 cells after 48 hrs by XTT assay; format: functional, cell-based; conditions: HuCC-A1, 48 h
HepG2 = assay: Cytotoxicity against human HepG2 cells after 48 hrs by XTT assay; format: functional, cell-based; conditions: HepG2, 48 h
KB = assay: Cytotoxicity against human KB cells after 48 hrs by XTT assay; format: functional, cell-based
MRC5 = assay: Cytotoxicity against human MRC5 cells after 48 hrs by XTT assay; format: cell-based; conditions: MRC5, 48 h
[2] = Cytotoxicity against human HCC-S102 cells after 48 hrs by XTT assay; format: functional, cell-based; conditions: HCC-S102, 48 h
P388 = assay: Cytotoxicity against mouse P388 cells after 48 hrs by XTT assay; format: functional, cell-based; conditions: P388, 48 h
A549 = assay: Cytotoxicity against human A549 cells after 48 hrs by XTT assay; format: functional, cell-based; conditions: A549, 48 h
[3] = Cytotoxicity against human MOLT3 cells after 48 hrs by XTT assay; format: functional, cell-based; conditions: MOLT-3, 48 h

SMILES | IC50 (H69AR) [nM] | IC50 (MDA-MB-231) [nM] | IC50 (HL-60) [nM] | IC50 (T47D) [nM] | IC50 (HeLa) [nM] | IC50 [1] [nM] | IC50 (HepG2) [nM] | IC50 (KB) [nM] | IC50 (MRC5) [nM] | IC50 [2] [nM] | IC50 (P388) [nM] | IC50 (A549) [nM] | IC50 [3] [nM]
COc1ccc(-c2c3c4cc(OC)c(O)cc4oc(=O)c3n3ccc4cc(O)c(OC)cc4c23)cc1O | 60 | 600 | 40 | 0.6 | 40 | 8 | 20 | 60 | > 100000 | 2300 | 80 | 40 | –
COc1ccc(-c2c3c4cc(OC)c(O)cc4oc(=O)c3n3ccc4c(O)c(OC)c(OC)cc4c23)cc1O | 300 | 80 | 200 | 6 | 90 | 40 | 200 | 80 | 10100 | 1600 | 300 | 300 | –
COc1cc(-c2c3c4cc(OC)c(O)cc4[nH]c(=O)c3n3ccc4cc(O)c(OC)cc4c23)ccc1O | – | – | – | – | – | 120 | 130 | – | – | – | – | 740 | 30
COc1cc(-c2c3c4cc(OC)c(O)cc4oc(=O)c3n3ccc4cc(O)c(OC)cc4c23)ccc1O [LAMELLARIN D] | 400 | 400 | 40 | 0.08 | 60 | 80 | 20 | 40 | 9200 | 3200 | 100 | 60 | 49
COc1cc2c(cc1O)oc(=O)c1c2c(-c2ccc(OC)c(OC)c2)c2c3cc(OC)c(OC)c(O)c3ccn21 | 2300 | 300 | 100 | 6 | 300 | 70 | 100 | 300 | 25800 | 2100 | 300 | 300 | –
COc1cc2c(cc1O)oc(=O)c1c2c(-c2ccc(OC)c(OC)c2)c2c3cc(OC)c(O)cc3ccn21 | 300 | 400 | 40 | 0.1 | 80 | 6 | 10 | 80 | > 97400 | 2100 | 80 | 40 | –
COc1cc(-c2c3c4cc(OC)c(O)cc4oc(=O)c3n3ccc4c(O)c(OC)c(OC)cc4c23)ccc1O | 300 | 100 | 60 | 9 | 300 | 60 | 20 | 200 | 13400 | 1900 | 100 | 40 | –
